Where two headings read alike, the source gives them in different places.
What was measured:
USP16-FL (USP16 1-823) = molecular target: T1, USP16-FL (USP16 1-823) (Homo sapiens, UniProt Q9Y5T5); test: ubiquitin-rhodamine110 DUB assay; assay type: biochemical; details: […] ubiquitin-rhodamine-[…] enzyme, pH […], up to […] compound
T1 construct: full length 1-823, pFBOH-LIC, Sf9 baculovirus, Ni-NTA and MonoQ

NanoLuc-tagged USP16 = molecular target: T2, NanoLuc-tagged USP16 (Homo sapiens, UniProt Q9Y5T5); test: NanoBRET displacement of HaloTag-ISG15; assay type: cell-based; details: HEK293T cells, […]
T2 construct: N-terminal NanoLuc fusion in HEK293T

NanoLuc-tagged HDAC6 [1] = molecular target: T3, NanoLuc-tagged HDAC6 (Homo sapiens, UniProt Q9UBN7); test: NanoBRET displacement of HaloTag-ISG15; assay type: cell-based; details: HEK293T cells, […]
T3 construct: N-terminal NanoLuc fusion in HEK293T
T3 sequence (Q9UBN7 1-1215): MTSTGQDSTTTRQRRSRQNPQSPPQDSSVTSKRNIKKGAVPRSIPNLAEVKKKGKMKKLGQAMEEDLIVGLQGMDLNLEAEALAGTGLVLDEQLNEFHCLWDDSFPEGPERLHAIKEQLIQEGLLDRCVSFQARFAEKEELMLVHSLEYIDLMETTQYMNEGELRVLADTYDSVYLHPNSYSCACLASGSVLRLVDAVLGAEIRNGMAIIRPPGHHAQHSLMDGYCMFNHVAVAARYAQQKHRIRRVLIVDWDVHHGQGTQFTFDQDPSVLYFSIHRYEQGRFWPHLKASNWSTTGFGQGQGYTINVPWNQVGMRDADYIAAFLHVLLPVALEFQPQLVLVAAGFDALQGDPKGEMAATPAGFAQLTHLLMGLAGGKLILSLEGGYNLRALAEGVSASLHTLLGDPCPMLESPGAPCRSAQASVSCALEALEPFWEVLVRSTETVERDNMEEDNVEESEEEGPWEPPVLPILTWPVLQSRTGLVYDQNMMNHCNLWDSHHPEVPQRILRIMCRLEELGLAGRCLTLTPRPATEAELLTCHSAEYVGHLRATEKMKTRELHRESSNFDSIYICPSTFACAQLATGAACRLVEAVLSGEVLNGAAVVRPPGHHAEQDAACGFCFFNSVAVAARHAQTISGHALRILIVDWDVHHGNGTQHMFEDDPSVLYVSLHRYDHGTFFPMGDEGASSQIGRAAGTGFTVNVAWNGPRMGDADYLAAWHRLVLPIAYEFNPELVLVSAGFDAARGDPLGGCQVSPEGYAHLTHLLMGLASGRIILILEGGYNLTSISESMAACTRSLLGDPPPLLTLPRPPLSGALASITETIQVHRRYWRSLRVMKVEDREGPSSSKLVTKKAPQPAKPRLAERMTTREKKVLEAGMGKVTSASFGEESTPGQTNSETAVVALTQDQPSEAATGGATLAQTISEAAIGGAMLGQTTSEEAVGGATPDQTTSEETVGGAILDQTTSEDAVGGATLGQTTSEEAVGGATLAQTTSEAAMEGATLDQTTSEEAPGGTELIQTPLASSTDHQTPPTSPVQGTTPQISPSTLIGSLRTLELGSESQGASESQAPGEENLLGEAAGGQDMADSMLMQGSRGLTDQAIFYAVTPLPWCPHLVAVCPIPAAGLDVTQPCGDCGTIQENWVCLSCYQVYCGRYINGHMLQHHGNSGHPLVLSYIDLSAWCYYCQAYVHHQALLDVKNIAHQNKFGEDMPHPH

USP16-UBD (USP16 25-185) [2] = molecular target: T4, USP16-UBD (USP16 25-185) (Homo sapiens, UniProt Q9Y5T5); test: biochemical; design: SPR, steady-state binding to immobilised biotinylated UBD proteins; details: read-out: Negative Control KD (nM) SGC-UBD1031N
USP13 = molecular target: T5, USP13 (Homo sapiens, UniProt Q92995); test: biochemical; design: SPR, steady-state binding to immobilised biotinylated UBD proteins
T5 construct: UBD, residues 183-307
T5 sequence (Q92995 1-863): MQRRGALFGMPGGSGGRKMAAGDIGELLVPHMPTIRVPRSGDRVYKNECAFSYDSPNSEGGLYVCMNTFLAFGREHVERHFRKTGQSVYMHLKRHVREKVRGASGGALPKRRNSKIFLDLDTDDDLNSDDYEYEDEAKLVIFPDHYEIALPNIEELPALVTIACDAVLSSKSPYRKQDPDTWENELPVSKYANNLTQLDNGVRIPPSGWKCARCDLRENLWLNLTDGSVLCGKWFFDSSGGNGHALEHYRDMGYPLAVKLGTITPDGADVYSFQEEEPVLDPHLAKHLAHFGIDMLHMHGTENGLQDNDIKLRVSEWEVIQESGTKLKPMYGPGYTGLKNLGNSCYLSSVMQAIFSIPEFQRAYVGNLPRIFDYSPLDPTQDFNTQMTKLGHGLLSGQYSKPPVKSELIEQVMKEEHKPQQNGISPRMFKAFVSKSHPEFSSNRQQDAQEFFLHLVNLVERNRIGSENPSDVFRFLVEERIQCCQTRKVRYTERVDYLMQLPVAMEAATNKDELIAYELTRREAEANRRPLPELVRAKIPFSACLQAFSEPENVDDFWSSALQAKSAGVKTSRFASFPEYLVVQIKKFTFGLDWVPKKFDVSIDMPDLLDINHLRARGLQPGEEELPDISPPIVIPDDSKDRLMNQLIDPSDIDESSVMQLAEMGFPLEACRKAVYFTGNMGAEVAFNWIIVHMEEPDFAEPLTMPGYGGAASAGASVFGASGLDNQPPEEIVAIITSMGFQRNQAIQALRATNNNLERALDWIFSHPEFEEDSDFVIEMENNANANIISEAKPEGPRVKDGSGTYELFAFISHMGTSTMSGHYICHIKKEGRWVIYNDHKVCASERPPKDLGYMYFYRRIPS

USP16-UBD (USP16 25-185) [3] = molecular target: T4, USP16-UBD (USP16 25-185); test: SPR, steady state; assay type: binding
USP16-UBD (USP16 8-185) = USP16-UBD (USP16 8-185) (Homo sapiens, UniProt Q9Y5T5); test: ITC; assay type: binding
NanoLuc-tagged HDAC6 [4] = molecular target: T3, NanoLuc-tagged HDAC6; test: NanoBRET displacement of HaloTag-ISG15; assay type: cell-based

T4 sequence (Q9Y5T5 25-185): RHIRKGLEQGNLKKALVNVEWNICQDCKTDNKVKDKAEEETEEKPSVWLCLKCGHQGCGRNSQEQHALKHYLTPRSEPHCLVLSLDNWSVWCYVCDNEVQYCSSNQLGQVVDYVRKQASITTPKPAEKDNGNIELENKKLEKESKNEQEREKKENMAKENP
T2 sequence (Q9Y5T5 whole entry, the tested form may be a part): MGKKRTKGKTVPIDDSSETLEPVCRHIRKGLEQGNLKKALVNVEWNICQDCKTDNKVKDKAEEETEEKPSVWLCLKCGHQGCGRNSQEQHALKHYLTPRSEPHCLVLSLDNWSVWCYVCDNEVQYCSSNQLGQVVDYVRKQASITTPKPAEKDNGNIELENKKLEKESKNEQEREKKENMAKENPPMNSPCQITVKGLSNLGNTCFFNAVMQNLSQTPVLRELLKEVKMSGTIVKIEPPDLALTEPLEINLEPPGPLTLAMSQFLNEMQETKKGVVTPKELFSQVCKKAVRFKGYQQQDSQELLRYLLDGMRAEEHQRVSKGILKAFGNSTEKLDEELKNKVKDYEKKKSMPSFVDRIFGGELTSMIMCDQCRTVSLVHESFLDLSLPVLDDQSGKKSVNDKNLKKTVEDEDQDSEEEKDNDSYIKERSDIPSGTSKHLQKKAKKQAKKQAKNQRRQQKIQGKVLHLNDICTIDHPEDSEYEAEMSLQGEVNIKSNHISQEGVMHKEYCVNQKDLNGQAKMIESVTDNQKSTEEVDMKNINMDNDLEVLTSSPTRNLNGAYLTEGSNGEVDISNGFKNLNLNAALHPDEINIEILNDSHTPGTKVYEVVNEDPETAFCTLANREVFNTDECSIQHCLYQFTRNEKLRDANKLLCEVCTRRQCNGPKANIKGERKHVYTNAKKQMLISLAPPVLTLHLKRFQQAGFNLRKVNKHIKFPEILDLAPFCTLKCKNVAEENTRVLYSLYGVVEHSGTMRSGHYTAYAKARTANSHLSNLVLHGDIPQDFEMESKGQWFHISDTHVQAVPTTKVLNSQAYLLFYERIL
T1 sequence (Q9Y5T5 whole entry): as the sequence (Q9Y5T5 whole entry, the tested form may be a part) above
USP16-UBD (USP16 8-185), sequence (Q9Y5T5 8-185): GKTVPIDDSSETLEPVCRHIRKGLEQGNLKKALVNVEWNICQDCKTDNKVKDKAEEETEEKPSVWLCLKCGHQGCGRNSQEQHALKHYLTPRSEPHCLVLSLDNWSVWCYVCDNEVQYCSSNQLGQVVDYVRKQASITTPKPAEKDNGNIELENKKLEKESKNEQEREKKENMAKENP

Kd (USP16-UBD (USP16 25-185) [2])	Kd (USP13; read-out: Negative Control KD (nM) SGC-UBD1031N)	Kd (USP16-UBD (USP16 25-185) [3])	Kd (USP16-UBD (USP16 8-185))	IC50 (NanoLuc-tagged HDAC6 [4])	Kd (USP13; read-out: Probe KD (nM) SGC-UBD1031)	Compound	ubiquitin-rhodamine110 DUB assay (USP16-FL (USP16 1-823))	NanoBRET displacement of HaloTag-ISG15 (NanoLuc-tagged USP16)	NanoBRET displacement of HaloTag-ISG15 (NanoLuc-tagged HDAC6 [1])
1770 ± 300 nM	> 10000 nM					C[C@@H](NC(=O)Cn1c(CCC(=O)O)nc2c(Cl)cccc2c1=O)c1c(F)cccc1F [compound 16, (R)-3-(8-chloro-3-(2-((1-(2,6-difluorophenyl)ethyl)amino)-2-oxoethyl)-4-oxo-3,4-dihydroquinazolin-2-yl)propanoic acid]	the negative control shows no inhibition of DUB activity	SGC-UBD1031N did not inhibit the interaction of HDAC6 or USP16 and ISG15	SGC-UBD1031N did not inhibit the interaction of HDAC6 or USP16 and ISG15
		0.048 µM	0.05 µM	1.5 ± 0.2 µM	> 10000 nM	C[C@H](NC(=O)Cn1c(CCC(=O)O)nc2c(Cl)cccc2c1=O)c1c(F)cccc1F [compound 15, (S)-3-(8-chloro-3-(2-((1-(2,6-difluorophenyl)ethyl)amino)-2-oxoethyl)-4-oxo-3,4-dihydroquinazolin-2-yl)propanoic acid]			

From doi:10.1101/2025.10.23.684218v2, “Development of a dual chemical probe for the USP16 and HDAC6 zinc-finger ubiquitin-binding domain” (biorxiv, 2025)
